≈ marks a conversion by molar mass, not a printed value.
Legend:
[1] = test system: E. coli; test: Minimum inhibitory concentration (broth dilution); format: cell-based, Escherichia coli; conditions: Escherichia coli, alone, read-out: MIC
[2] = test system: K. pneumoniae; test: Combination study with AMP or CIP
[3] = test system: S. aureus; test: Combination study with AMP or CIP
[4] = test system: B. subtilis; test: Combination study with AMP or CIP
[5] = test system: S. aureus; test: Minimum inhibitory concentration (broth dilution); format: cell-based; conditions: Staphylococcus aureus, alone
[6] = test system: K. pneumoniae; test: Growth inhibition screening (broth dilution); format: cell-based, Klebsiella pneumonia; conditions: Klebsiella pneumoniae
Protocol: (§1) In vitro screening of the compounds (PS1–14) was performed to assess the antibacterial activity against three Gram-positive (Staphylococcus aureus, Enterococcus faecalis and Bacillus subtilis,) and three Gram-negative (Pseudomonas aeruginosa, Klebsiella pneumonia and Escherichia coli) bacterial strains using the standard NCCLS broth dilution assay. The study’s standard drugs were ciprofloxacin (CIP) and ampicillin (AMP). Compounds were dissolved in a polar solvent (DMSO) and distributed into a 96-well plate in 200 µL of nutrient broth medium, with a final concentration of the compounds […] in each well. The bacterial cells (about 2.5 × 10^5 cells/mL) were inoculated into each well and incubated at 37 °C overnight. After incubation, the growth was measured by turbidity of the culture at 590 nm by spectrophotometer.

[7] = test system: E. faecalis; test: Combination study with AMP or CIP
[8] = test system: P. aeruginosa; test: Growth inhibition screening (broth dilution); format: cell-based, Pseudomonas aeruginosa; conditions: Pseudomonas aeruginosa
Protocol: as §1

[9] = test system: P. aeruginosa; test: Minimum inhibitory concentration (broth dilution); format: cell-based; conditions: Pseudomonas aeruginosa, alone
[10] = test system: E. coli; test: Combination study with AMP or CIP
[11] = test system: B. subtilis; test: Growth inhibition screening (broth dilution); format: cell-based, Bacillus subtilis; conditions: Bacillus subtilis
Protocol: as §1

[12] = test system: K. pneumoniae; test: Minimum inhibitory concentration (broth dilution); format: cell-based, Klebsiella pneumonia; conditions: Klebsiella pneumoniae, alone, read-out: MIC
[13] = test system: E. faecalis; test: Growth inhibition screening (broth dilution); format: cell-based, Enterococcus faecalis; conditions: Enterococcus faecalis
Protocol: as §1

[14] = test system: E. faecalis; test: Minimum inhibitory concentration (broth dilution); format: cell-based; conditions: Enterococcus faecalis, alone
[15] = test system: E. coli; test: Growth inhibition screening (broth dilution); format: cell-based, Escherichia coli; conditions: Escherichia coli
Protocol: as §1

[16] = test system: S. aureus; test: Growth inhibition screening (broth dilution); format: cell-based, Staphylococcus aureus; conditions: Staphylococcus aureus
Protocol: as §1

[17] = test system: P. aeruginosa; test: Combination study with AMP or CIP
[18] = biological target: T1, MtMetAP1c (Mycobacterium tuberculosis, UniProt P9WK19); test: MetAP enzyme inhibition, Morrison Ki (Met-AMC fluorescence); format: biochemical, M. tuberculosis; conditions: Morrison Ki method
T1 construct: made in house
Protocol: MetAP appears to serve a vital role in the co- or post-translational modification of proteins, making it essential for bacterial cell metabolism and survival. In this study, all enzymes, which were used for this study, including MtMetAP1c (M. tuberculosis), EfMetAP1a (E. faecalis), SpMetAP1a (S. pneumoniae) and HsMetAP1b (H. sapiens) enzymes, were expressed and purified in our lab as previously reported. All compounds prepared 10 mM stocks in DMSO and were used for enzyme inhibition studies. The concentration of each enzyme is adjusted such that they have similar reaction rates (HsMetAp1b, 1 µM; SpMetAP1a, 5 µM; EfMetAP1a, 1 µM; MtMetAP1c, 1 µM;) as reported earlier. All assays were performed in […] reaction containing 50 mM HEPES (pH 7.5 for SpMetAP1a and HsMetAP1b; 8.0 for EfMetAP1a, MtMetAP1c, […]), 150 mM NaCl, and CoCl2 (three molar equivalents of corresponding enzymes). The reaction was started by adding 50 μM L-Methionine 7-amido-4-methyl coumarin (Met-AMC) and continuously monitoring the fluorescence of released 7-amino-4-methyl coumarin (AMC) (380 nm excitation and 460 nm emission) in a microplate multimode reader (TECAN, Austria). The maximum percentage of inhibition against enzymes is calculated at […] compound concentration. […] The Ki values were determined according to the Morrison method using three different concentrations of substrates and ten different concentrations of the inhibitor. All experiments were performed in triplicate. GraphPad Prism version 8.0.0 (San Diego, CA, USA) was used to determine all the kinetic parameters.

[19] = biological target: EfMetAP1a (Enterococcus faecalis, UniProt Q832M5); test: as above; format: biochemical; conditions: Morrison Ki method
[20] = biological target: SpMetAP1a (Streptococcus pneumoniae, UniProt Q8DPV1); test: as above; format: biochemical; conditions: Morrison Ki method
Chain of SpMetAP1a (Q8DPV1 entry or part of it): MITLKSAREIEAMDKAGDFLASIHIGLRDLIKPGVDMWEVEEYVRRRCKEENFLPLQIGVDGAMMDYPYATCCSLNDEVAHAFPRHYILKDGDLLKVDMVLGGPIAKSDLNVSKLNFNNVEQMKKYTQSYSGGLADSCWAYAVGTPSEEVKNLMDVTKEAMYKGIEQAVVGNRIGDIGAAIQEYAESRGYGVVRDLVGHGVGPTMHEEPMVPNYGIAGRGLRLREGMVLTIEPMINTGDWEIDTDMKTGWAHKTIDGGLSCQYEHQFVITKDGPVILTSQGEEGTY

T1 sequence (P9WK19 whole entry): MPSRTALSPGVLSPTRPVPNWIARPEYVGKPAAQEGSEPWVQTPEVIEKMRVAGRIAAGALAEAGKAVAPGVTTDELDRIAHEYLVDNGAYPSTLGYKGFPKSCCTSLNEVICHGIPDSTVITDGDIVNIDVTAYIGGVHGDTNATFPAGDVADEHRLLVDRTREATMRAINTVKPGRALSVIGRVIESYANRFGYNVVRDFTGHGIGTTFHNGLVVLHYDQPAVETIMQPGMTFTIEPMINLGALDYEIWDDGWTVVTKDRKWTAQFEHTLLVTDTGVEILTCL
Chain of EfMetAP1a (Q832M5 entry or part of it): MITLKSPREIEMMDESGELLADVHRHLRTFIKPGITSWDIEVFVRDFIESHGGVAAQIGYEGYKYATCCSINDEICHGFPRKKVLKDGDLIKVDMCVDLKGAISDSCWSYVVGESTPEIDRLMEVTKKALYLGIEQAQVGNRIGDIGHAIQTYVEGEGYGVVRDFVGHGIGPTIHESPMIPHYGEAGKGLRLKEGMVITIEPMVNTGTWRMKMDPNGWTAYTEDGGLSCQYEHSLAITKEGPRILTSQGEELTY

Row | Structure (SMILES) | inhibition at 250 µg/mL [6] [%] | inhibition at 250 µg/mL [8] [%] | inhibition at 250 µg/mL [11] [%] | inhibition at 250 µg/mL [13] [%] | inhibition at 250 µg/mL [15] [%] | inhibition at 250 µg/mL [16] [%] | melting point [°C] | Ki [18] [µM] | other results
1 | O=C(O)c1cn(C2CC2)c2cc(N3CCNCC3)c(F)cc2c1=O [CIP, Ciprofloxacin, reference compound] | 100 | 100 | 100 | 100 | 100 | 100 |  |  | MIC [1]: 8 µg/mL (≈ 24.1 µM); MIC in Combination ([2]; combination PS6 + CIP): 4 µg/mL; MIC in Combination ([2]; combination PS9 + CIP): 0.0078 µg/mL; MIC in Combination ([3]; combination PS6 + CIP): 0.25 µg/mL; MIC in Combination ([3]; combination PS9 + CIP): 0.0156 µg/mL; MIC in Combination ([4]; combination PS6 + CIP): 0.0078 µg/mL; MIC in Combination ([4]; combination PS9 + CIP): 0.5 µg/mL; MIC [5]: 0.5 µg/mL (≈ 1.51 µM); MIC in Combination ([7]; combination PS6 + CIP): 0.0625 µg/mL; MIC in Combination ([7]; combination PS9 + CIP): 1 µg/mL; MIC [9]: 4 µg/mL (≈ 12.1 µM); MIC in Combination ([10]; combination PS6 + CIP): 0.5 µg/mL; MIC in Combination ([10]; combination PS9 + CIP): 0.03125 µg/mL; MIC [12]: 8 µg/mL (≈ 24.1 µM); MIC [14]: 1 µg/mL (≈ 3.02 µM); MIC in Combination ([17]; combination PS6 + CIP): 0.5 µg/mL; MIC in Combination ([17]; combination PS9 + CIP): 0.125 µg/mL
2 | O=C1Nc2c(cccc2[N+](=O)[O-])/C1=N\NC(=O)c1cc(-c2cccc(Br)c2)n[nH]1 [PS10, (E)-3-(3-Bromophenyl)-N′-(7-Nitro-2-Oxoindolin-3-Ylidene)-1H-Pyrazole-5-Carbohydrazide] | 52 | 100 | 56 | 85 | 88 | 82 | 215 to 218 |  | 
3 | O=C1Nc2cc(F)ccc2/C1=N\NC(=O)c1cc(-c2cccc(Br)c2)n[nH]1 [PS7, (E)-3-(3-Bromophenyl)-N′-(6-Fluoro-2-Oxoindolin-3-Ylidene)-1H-Pyrazole-5-Carbohydrazide] | 49 | 65 | 100 | 99 | 3 | 10 | 228 to 230 |  | 
4 | O=C1Nc2c(Cl)cccc2/C1=N\NC(=O)c1cc(-c2cccc(Br)c2)n[nH]1 [PS13, (E)-3-(3-Bromophenyl)-N′-(7-Chloro-2-Oxoindolin-3-Ylidene)-1H-Pyrazole-5-Carbohydrazide] | 74 | 95 | 33 | 36 | 20 | 92 | 205 to 208 |  | 
5 | Cc1cc(C)c2c(c1)/C(=N\NC(=O)c1cc(-c3cccc(Br)c3)n[nH]1)C(=O)N2 [PS4, (E)-3-(3-Bromophenyl)-N′-(5,7-Dimethyl-2-Oxoindolin-3-Ylidene)-1H-Pyrazole-5-Carbohydrazide] | 97 | 90 | 44 | 47 | 80 | 81 | 257 to 260 |  | 
6 | O=C1Nc2ccc(Br)cc2/C1=N\NC(=O)c1cc(-c2cccc(Br)c2)n[nH]1 [PS5, (E)-N′-(5-Bromo-2-Oxoindolin-3-Ylidene)-3-(3-Bromophenyl)-1H-Pyrazole-5-Carbohydrazide] | 100 | 100 | 34 | 86 | 9 | 100 | 230 to 233 | 3.14 ± 0.41 | 
7 | COc1ccc2c(c1)NC(=O)/C2=N/NC(=O)c1cc(-c2cccc(Br)c2)n[nH]1 [PS12, (E)-3-(3-Bromophenyl)-N′-(6-Methoxy-2-Oxoindolin-3-Ylidene)-1H-Pyrazole-5-Carbohydrazide] | 6 | 23 | 85 | 65 | 74 | 100 | 228 to 230 | 0.61 ± 0.03 | Ki [19]: 3.25 ± 0.14 µM
8 | O=C1Nc2ccccc2/C1=N\NC(=O)c1cc(-c2cccc(Br)c2)n[nH]1 [PS1, (E)-3-(3-Bromophenyl)-N′-(2-Oxoindolin-3-YLIDENE)-1H-Pyrazole-5-Carbohydrazide] | 74 | 4 | 76 | 12 | 40 | 73 | 218 to 221 | 2.3 ± 0.27 | Ki [20]: 4.48 ± 0.12 µM; Ki [19]: 2.65 ± 0.34 µM
9 | Cc1ccc2c(c1)/C(=N\NC(=O)c1cc(-c3cccc(Br)c3)n[nH]1)C(=O)N2 [PS2, (E)-3-(3-Bromophenyl)-N′-(5-Methyl-2-Oxoindolin-3-Ylidene)-1H-Pyrazole-5-Carbohydrazide] | 90 | 87 | 80 | 10 | 86 | 66 | 209 to 213 | 4.37 ± 0.14 | Ki [20]: 2.98 ± 0.18 µM
10 | O=C1Nc2ccc(Cl)cc2/C1=N\NC(=O)c1cc(-c2cccc(Br)c2)n[nH]1 [PS8, (E)-3-(3-Bromophenyl)-N′-(5-Chloro-2-Oxoindolin-3-Ylidene)-1H-Pyrazole-5-Carbohydrazide] | 52 | 100 | 93 | 13 | 84 | 3 | 217 to 220 |  | 
11 | O=C1Nc2cc([N+](=O)[O-])ccc2/C1=N\NC(=O)c1cc(-c2cccc(Br)c2)n[nH]1 [PS14, (E)-3-(3-Bromophenyl)-N′-(6-Nitro-2-Oxoindolin-3-Ylidene)-1H-Pyrazole-5-Carbohydrazide] | 17 | 3 | 86 | 9 | 34 | 33 | 225 to 228 | 1.27 | Ki [20]: 0.5 ± 0.03 µM
